In patent US20260007684A1, “AMIDE DERIVATIVES FOR INHIBITING NLRP3 AND USES THEREOF” (Ventus Therapeutics U.S., Inc., priority 2023, published 2026):
pIC50: −log10 of the molar value. Like-named read-outs stand apart in the source and are kept apart here.

Molecular target: human NLRP3 (Homo sapiens (Human), UniProt Q96P20)
Test: Scintillation Proximity (SPA) NLRP3 Assay: displacement of 3H-MCC950
Format: binding
[1] = displacement of 3H-MCC950, read-out: SPA IC50
[2] = SPA IC50, displacement of 3H-MCC950

human NLRP3, sequence (Q96P20 whole entry): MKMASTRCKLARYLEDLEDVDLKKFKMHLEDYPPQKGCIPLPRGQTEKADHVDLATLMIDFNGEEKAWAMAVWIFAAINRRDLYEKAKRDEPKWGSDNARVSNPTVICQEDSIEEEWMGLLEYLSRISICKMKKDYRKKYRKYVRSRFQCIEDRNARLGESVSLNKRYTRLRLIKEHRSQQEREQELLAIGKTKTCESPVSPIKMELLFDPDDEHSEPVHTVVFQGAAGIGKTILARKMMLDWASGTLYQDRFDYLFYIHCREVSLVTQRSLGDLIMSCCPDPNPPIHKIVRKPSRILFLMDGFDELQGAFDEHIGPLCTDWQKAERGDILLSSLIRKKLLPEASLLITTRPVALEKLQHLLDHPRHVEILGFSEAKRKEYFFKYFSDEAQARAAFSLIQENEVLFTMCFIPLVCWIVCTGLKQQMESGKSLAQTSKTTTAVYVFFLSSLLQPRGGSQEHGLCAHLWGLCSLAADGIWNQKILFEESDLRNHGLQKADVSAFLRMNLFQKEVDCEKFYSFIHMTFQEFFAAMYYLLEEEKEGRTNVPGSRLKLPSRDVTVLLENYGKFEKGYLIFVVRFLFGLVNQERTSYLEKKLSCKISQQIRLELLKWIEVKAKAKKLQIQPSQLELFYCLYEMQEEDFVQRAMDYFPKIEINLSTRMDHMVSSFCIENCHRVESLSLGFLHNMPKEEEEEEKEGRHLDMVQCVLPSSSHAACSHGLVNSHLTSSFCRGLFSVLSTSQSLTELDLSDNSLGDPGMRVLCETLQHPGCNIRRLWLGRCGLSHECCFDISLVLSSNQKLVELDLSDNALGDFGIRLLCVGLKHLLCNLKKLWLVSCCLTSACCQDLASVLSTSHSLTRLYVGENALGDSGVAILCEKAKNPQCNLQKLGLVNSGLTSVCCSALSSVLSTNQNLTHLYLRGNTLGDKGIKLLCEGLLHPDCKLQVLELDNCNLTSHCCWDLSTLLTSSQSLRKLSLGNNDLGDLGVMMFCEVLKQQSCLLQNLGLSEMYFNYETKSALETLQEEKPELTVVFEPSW

Row | Structure (SMILES) | pIC50 [1] | pIC50 [2] | other results
1 | Cc1ccc(C2(C(=O)N[C@H]3C[C@@H](C)[C@@H]4CC[C@H]3N4c3nnn[nH]3)CC2)cc1 [87B*, N-((1R,2S,4R,5S)-4-methy1-8-(1H-tetrazol-5-yl)-8-azabicyclo[3.2.1]octan-2-yl)-1-(p-tolyl)cyclopropane-1-carboxamide] | 4.30 to 5.00 |  | 
2 | Cc1ccc(C2(C(=O)N[C@@H]3C[C@H](C)[C@H]4CC[C@@H]3N4c3nnn[nH]3)CC2)cc1 [87C*, N-((1S,2R,4S,5R)-4-methy1-8-(1H-tetrazol-5-yl)-8-azabicyclo[3.2.1]octan-2-yl)-1-(p-tolyl)cyclopropane-1-carboxamide] | < 4.00 |  | 
3 | Cc1ccc(C2(C(=O)N[C@H]3C[C@H](C)[C@H]4CC[C@@H]3N4c3nnn[nH]3)CC2)cc1 [87D*, N-((1S,2S,4S,5R)-4-methy1-8-(1H-tetrazol-5-yl)-8-azabicyclo[3.2.1]octan-2-yl)-1-(p-tolyl)cyclopropane-1-carboxamide] | < 4.00 |  | 
4 | O=C(N[C@H]1CCC[C@@H]2CC[C@H]1N2c1nnn[nH]1)C1(c2ccc(C(F)(F)F)cc2O)CC1 [88B*, N-((1R,2S,6R)-9-(1H-tetrazol-5-yl)-9-azabicyclo[4.2.1]nonan-2-yl)-1-(2-hydroxy-4-(trifluoromethyl)phenyl)cyclopropane-1-carboxamide] | > 6.00 |  | 
5 | O=C(N[C@@H]1CCC[C@H]2CC[C@@H]1N2c1nnn[nH]1)C1(c2ccc(C(F)(F)F)cc2O)CC1 [88C*, N-((1S,2R,6S)-9-(1H-tetrazol-5-yl)-9-azabicyclo[4.2.1]nonan-2-yl)-1-(2-hydroxy-4-(trifluoromethyl)phenyl)cyclopropane-1-carboxamide] |  | 4.00 to 4.30 | 
6 | O=C(N[C@H]1CCC[C@H]2CC[C@@H]1N2c1nnn[nH]1)C1(c2ccc(C(F)(F)F)cc2O)CC1 [88D*, N-((1S,2S,6S)-9-(1H-tetrazol-5-yl)-9-azabicyclo[4.2.1]nonan-2-yl)-1-(2-hydroxy-4-(trifluoromethyl)phenyl)cyclopropane-1-carboxamide] |  | 5.00 to 6.00 | 
7 | C[C@@H]1CC[C@@H](NC(=O)C2(c3ccc(C(F)(F)F)cc3O)CC2)CN(c2nnn[nH]2)C1 [89C*, 1-(2-hydroxy-4-(trifluoromethyl)phenyl)-N-((3R,6R)-6-methyl-1-(1H-tetrazol-5-yl)azepan-3-yl)cyclopropane-1-carboxamide] | 5.00 to 6.00 |  | 
8 | C[C@@H]1CC[C@H](NC(=O)C2(c3ccc(C(F)(F)F)cc3O)CC2)CN(c2nnn[nH]2)C1 [89D*, 1-(2-hydroxy-4-(trifluoromethyl)phenyl)-N-((3S,6R)-6-methyl-1-(1H-tetrazol-5-yl)azepan-3-yl)cyclopropane-1-carboxamide] | 5.00 to 6.00 |  | 
9 | O=C(N[C@H]1CCC[C@@H]2CC[C@H]1N2c1nnn[nH]1)C1(c2ccc(C3CC3)cc2O)CC1 [93B*, N-((1R,2S,6R)-9-(1H-tetrazol-5-yl)-9-azabicyclo[4.2.1]nonan-2-yl)-1-(4-cyclopropyl-2-hydroxyphenyl)cyclopropane-1-carboxamide] |  | 5.00 to 6.00 | 
10 | O=C(N[C@@H]1CCC[C@H]2CC[C@@H]1N2c1nnn[nH]1)C1(c2ccc(C3CC3)cc2O)CC1 [93C*, N-((1S,2R,6S)-9-(1H-tetrazol-5-yl)-9-azabicyclo[4.2.1]nonan-2-yl)-1-(4-cyclopropyl-2-hydroxyphenyl)cyclopropane-1-carboxamide] |  | 4.30 to 5.00 | 
11 | C[C@H]1C[C@@H]2CC[C@H]([C@@H](NC(=O)C3(c4ccc(C(F)(F)F)cc4)CC3)C1)N2c1nnn[nH]1 [104B*, N-((1R,2S,4R,6S)-4-methyl-9-(1H-tetrazol-5-yl)-9-azabicyclo[4.2.1]nonan-2-yl)-1-(4-(trifluoromethyl)phenyl)cyclopropane-1-carboxamide] |  | 4.30 to 5.00 | 
12 | C[C@@H]1C[C@H]2CC[C@@H]([C@@H](NC(=O)C3(c4ccc(C(F)(F)F)cc4)CC3)C1)N2c1nnn[nH]1 [104D*, N-((1S,2S,4S,6R)-4-methyl-9-(1H-tetrazol-5-yl)-9-azabicyclo[4.2.1]nonan-2-yl)-1-(4-(trifluoromethyl)phenyl)cyclopropane-1-carboxamide] |  | 4.30 to 5.00 | 
13 | C[C@@H]1C[C@@H]2CC[C@H]([C@H](NC(=O)C3(c4ccc(C(F)(F)F)cc4)CC3)C1)N2c1nnn[nH]1 [104E*, N-((1R,2R,4S,6S)-4-methyl-9-(1H-tetrazol-5-yl)-9-azabicyclo[4.2.1]nonan-2-yl)-1-(4-(trifluoromethyl)phenyl)cyclopropane-1-carboxamide] |  | 4.30 to 5.00 | 
14 | C[C@@H]1C[C@@H]2CC[C@H]([C@@H](NC(=O)C3(c4ccc(C(F)(F)F)cc4)CC3)C1)N2c1nnn[nH]1 [104F*, N-((1R,2S,4S,6S)-4-methyl-9-(1H-tetrazol-5-yl)-9-azabicyclo[4.2.1]nonan-2-yl)-1-(4-(trifluoromethyl)phenyl)cyclopropane-1-carboxamide] |  | 4.30 to 5.00 | 
15 | C[C@H]1C[C@H]2CC[C@@H]([C@H](NC(=O)C3(c4ccc(C(F)(F)F)cc4)CC3)C1)N2c1nnn[nH]1 [104G*, N-((1S,2R,4R,6R)-4-methyl-9-(1H-tetrazol-5-yl)-9-azabicyclo[4.2.1]nonan-2-yl)-1-(4-(trifluoromethyl)phenyl)cyclopropane-1-carboxamide] |  | 4.00 to 4.30 | 
16 | C[C@H]1C[C@H]2CC[C@@H]([C@@H](NC(=O)C3(c4ccc(C(F)(F)F)cc4)CC3)C1)N2c1nnn[nH]1 [104H*, N-((1S,2S,4R,6R)-4-methyl-9-(1H-tetrazol-5-yl)-9-azabicyclo[4.2.1]nonan-2-yl)-1-(4-(trifluoromethyl)phenyl)cyclopropane-1-carboxamide] |  | 4.00 to 4.30 | 
17 | Cn1nnnc1-c1cccc(NC(=O)C2(c3ccc(Cl)cc3)CC2)c1 [Comparative Example E1, 1-(4-chlorophenyl)-N-(3-(1-methyl-1H-tetrazol-5-yl)phenyl)cyclopropane-1-carboxamide, reference compound] |  |  | pIC50 (read-out: SPA IC50): < 3.30
18 | Cn1nnc(-c2cccc(NC(=O)C3(c4ccc(Cl)cc4)CC3)c2)n1 [Comparative Example E2, 1-(4-chlorophenyl)-N-(3-(2-methyl-2H-tetrazol-5-yl)phenyl)cyclopropane-1-carboxamide, reference compound] |  |  | pIC50 (read-out: SPA IC50): < 3.30
19 | O=C(N[C@H]1CCCN(c2nnn[nH]2)C1)C1(c2ccc(Cl)cc2)CC1 [Compound 10B, (S)—N-(1-(1H-tetrazol-5-yl)piperidin-3-yl)-1-(4-chlorophenyl)cyclopropane-1-carboxamide] | < 4.00 |  | 
20 | C[C@H]1C[C@@H](NC(=O)C2(c3ccc(C(F)(F)F)nc3O)CC2)CN(c2nnn[nH]2)C1 [Compound 24A, 1-(2-hydroxy-6-(trifluoromethyl)pyridin-3-yl)-N-((3R,5S)-5-methyl-1-(1H-tetrazol-5-yl)piperidin-3-yl)cyclopropane-1-carboxamide] | 5.00 to 6.00 |  | 
21 | C[C@H]1C[C@@H](NC(=O)C2(c3cnc(C(F)(F)F)cc3O)CC2)CN(c2nnn[nH]2)C1 [Compound 26A, 1-(4-hydroxy-6-(trifluoromethyl)pyridin-3-yl)-N-((3R,5S)-5-methyl-1-(1H-tetrazol-5-yl)piperidin-3-yl)cyclopropane-1-carboxamide] | 5.00 to 6.00 |  | 
22 | C[C@@H]1[C@H](NC(=O)C2(c3ccc(Cl)cc3)CC2)CCCN1c1nnn[nH]1 [Compound 40A, 1-(4-chlorophenyl)-N-[(2R,3R)-2-methyl-1-(1H-tetrazol-5-yl)-3-piperidyl]cyclopropanecarboxamide] | < 4.00 |  | 
23 | C[C@H]1[C@H](NC(=O)C2(c3ccc(Cl)cc3)CC2)CCCN1c1nnn[nH]1 [Compound 40C, 1-(4-chlorophenyl)-N-[(2S,3R)-2-methyl-1-(1H-tetrazol-5-yl)-3-piperidyl]cyclopropanecarboxamide] | < 4.00 |  | 
